Results as given in ChEMBL document CHEMBL5625263, “Discovery of a novel series of selective macrocyclic PKCTheta inhibitors” (Bioorg Med Chem Lett, 2024).
Values after ≈ are worked out from the molar mass of the structure shown.

Columns and labels:
[1] = target: T1, Protein kinase C theta type (Homo sapiens, UniProt Q04759); assay: Inhibition of PKC theta (unknown origin) in presence of ATP at Km
[2] = Clearance in rat; format: ADME; details: in vivo
[3] = Oral bioavailability in rat; format: ADME, organism-based; details: in vivo
[4] = Solubility of the compound; format: physicochemical
[5] = Selectivity ratio of inhibition of FLT3 (unknown origin) to inhibition of PKC theta (unknown origin) at 1 mM ATP concentration
[6] = Selectivity ratio of inhibition of GSK3beta (unknown origin) to inhibition of PKC theta (unknown origin) at 1 mM ATP concentration
[7] = target: T1, Protein kinase C theta type; assay: Inhibition of PKC theta in TCR-stimulated human PBMC assessed as inhibition of IL-2 release; format: cell-based
[8] = Selectivity ratio of inhibition of PKCbeta1 (unknown origin) to inhibition of PKC theta (unknown origin) at 1 mM ATP concentration
[9] = Selectivity ratio of inhibition of MSK1 (unknown origin) to inhibition of PKC theta (unknown origin) at 1 mM ATP concentration
[10] = target: T2, Protein kinase C alpha type (Homo sapiens, UniProt P17252); assay: Inhibition of PKC alpha (unknown origin) in presence of 1 mM ATP
[11] = Selectivity ratio of inhibition of TRKA (unknown origin) to inhibition of PKC theta (unknown origin) at 1 mM ATP concentration
[12] = Selectivity ratio of inhibition of PKCeta (unknown origin) to inhibition of PKC theta (unknown origin) at 1 mM ATP concentration
[13] = Selectivity ratio of inhibition of CLK1 (unknown origin) to inhibition of PKC theta (unknown origin) at 1 mM ATP concentration
[14] = Selectivity ratio of inhibition of RSK3 (unknown origin) to inhibition of PKC theta (unknown origin) at 1 mM ATP concentration
[15] = Selectivity ratio of inhibition of PKCdelta (unknown origin) to inhibition of PKC theta (unknown origin) at 1 mM ATP concentration
[16] = Selectivity ratio of inhibition of PI3K-C2beta (unknown origin) to inhibition of PKC theta (unknown origin) at 1 mM ATP concentration
[17] = Selectivity ratio of inhibition of PKACalpha (unknown origin) to inhibition of PKC theta (unknown origin) at 1 mM ATP concentration
[18] = Selectivity ratio of inhibition of AURB (unknown origin) to inhibition of PKC theta (unknown origin) at 1 mM ATP concentration
[19] = target: T1, Protein kinase C theta type; assay: Inhibition of PKC theta (unknown origin) in presence of 1 mM ATP
[20] = Apparent permeability of a compound in human Caco-2 cells; format: ADME, cell-based
[21] = Selectivity ratio of inhibition of HGK (unknown origin) to inhibition of PKC theta (unknown origin) at 1 mM ATP concentration
[22] = target: T2, Protein kinase C alpha type; assay: Inhibition of PKC alpha (unknown origin) in presence of ATP at Km
[23] = Half life in rat; format: ADME; details: in vivo
[24] = Efflux ratio of apparent permeability across basolateral to apical side over apical to basolateral side in human Caco-2 cells; format: ADME, cell-based
[25] = Metabolic stability in human hepatocytes assessed as intrinsic clearance measured per 10^6 cells; format: ADME, cell-based, Hepatocyte; details: read-out: CLH
[26] = Volume of distribution at steady state in rat; format: ADME; details: in vivo, read-out: Vdss

T1 sequence (Q04759 whole entry): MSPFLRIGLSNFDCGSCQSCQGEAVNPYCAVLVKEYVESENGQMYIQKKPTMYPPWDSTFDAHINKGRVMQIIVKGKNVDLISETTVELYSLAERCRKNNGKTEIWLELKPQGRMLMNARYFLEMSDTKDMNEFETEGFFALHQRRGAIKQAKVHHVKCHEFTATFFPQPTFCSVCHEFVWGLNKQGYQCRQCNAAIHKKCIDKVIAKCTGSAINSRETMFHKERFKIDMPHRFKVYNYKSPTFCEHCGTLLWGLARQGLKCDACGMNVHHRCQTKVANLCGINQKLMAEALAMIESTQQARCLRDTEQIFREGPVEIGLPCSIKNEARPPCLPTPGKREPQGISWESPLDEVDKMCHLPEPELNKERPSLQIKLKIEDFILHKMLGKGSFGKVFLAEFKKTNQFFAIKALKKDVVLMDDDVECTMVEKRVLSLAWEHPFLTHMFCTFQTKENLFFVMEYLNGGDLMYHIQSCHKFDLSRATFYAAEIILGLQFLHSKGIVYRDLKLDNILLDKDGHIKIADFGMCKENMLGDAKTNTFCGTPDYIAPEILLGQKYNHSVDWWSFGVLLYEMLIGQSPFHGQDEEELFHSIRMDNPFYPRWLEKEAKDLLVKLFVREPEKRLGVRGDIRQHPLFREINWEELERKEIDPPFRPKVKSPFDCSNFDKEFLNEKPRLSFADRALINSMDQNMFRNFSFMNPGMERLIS

| SMILES | IC50 [1] [nM] | clearance [2] [mL/min/kg] | bioavailability [3] [%] | solubility [4] [µM] | Selectivity ratio [5] | Selectivity ratio [6] | IC50 [7] [nM] | Selectivity ratio [8] | Selectivity ratio [9] | IC50 [10] [nM] | Selectivity ratio [11] | Selectivity ratio [12] | Selectivity ratio [13] | Selectivity ratio [14] | Selectivity ratio [15] | Selectivity ratio [16] | Selectivity ratio [17] | Selectivity ratio [18] | IC50 [19] [nM] | Papp [20] [×10⁻⁶ cm/s] | other results |
| --- | --- | --- | --- | --- | --- | --- | --- | --- | --- | --- | --- | --- | --- | --- | --- | --- | --- | --- | --- | --- | --- |
| CC1CCCOc2nc(ccc2C(N)=O)-n2c(=O)[nH]c3nccc(c32)O1 (centres undefined) | 0.9 | 19.6 | 53 | 300 (≈ 107 µg/mL) | 21 | 66 | 29 | 147 | 322 | 6500 | 491 | 43 | 66 | 311 | 38 | 133 | 501 | 763 | 12 | 3.9 | Selectivity ratio [21]: 51; IC50 [22]: 770 nM; half-life [23]: 2.2 h; efflux ratio [24]: 8 |
| CC1CC(C)Oc2ccnc3[nH]c(=O)n(c23)-c2cccc(n2)O1 (centres undefined) | 2 | 12 | 50 | 95 (≈ 29.7 µg/mL) | 78 | > 370 | 58 | 188 | 142 | 6000 | > 370 | 43 | > 370 | > 370 | 99 | > 370 | > 370 | > 370 | 27 | 32 | hepatocyte CLint [25]: < 4 µL/min/1e6 cells; Vd [26]: 1.8 L/kg; Selectivity ratio [21]: 40; IC50 [22]: 820 nM; efflux ratio [24]: 0.6 |
